In patent publication US11180657B2, “Polysulfonated fluorescence dyes” (ATTO-TEC GmbH, priority 2017, dated 2021):
Marks after values point to notes of the source that are not given here.

Assays:
[1] = Absorption maximum of the dye; assay type: physicochemical
From the text: (§1) Examples of the compounds according to the invention are listed in Tables 2-6, where the structures as well as the absorption and fluorescence maxima are indicated. The spectra of selected compounds are shown FIGS. 5-18.

[2] = Fluorescence maximum of the dye; assay type: physicochemical
From the text: as §1

Row | SMILES | λabs ([1]; solvent PBS pH 7.4) | λfl ([2]; solvent PBS pH 7.4) | λabs ([1]; solvent ethanol) | λfl ([2]; solvent ethanol)
1 | Cn1cc[n+](CCCCS(=O)(=O)O)c1C1=c2cc3c(cc2C(C)(C)c2cc4c(cc21)C(CS(=O)(=O)O)=CC(C)(C)N4Cc1ccc(S(=O)(=O)O)cc1S(=O)(=O)O)=[N+](CCCC(=O)O)C(C)(C)C=C3CS(=O)(=O)O [Compound 60] | 742^b nm | 775^b nm | – | –
2 | CC[N+]1=c2cc3c(cc2C(CS(=O)(=O)O)=CC1(C)C)=C(c1n(C)cc[n+]1CCCCC(=O)O)c1cc2c(cc1C3(C)C)N(Cc1ccc(S(=O)(=O)O)cc1S(=O)(=O)O)C(C)(C)C=C2CS(=O)(=O)O [Compound 61] | 743^b nm | 776^b nm | – | –
3 | Cn1cc[n+](CCCC(=O)O)c1C1=c2cc3c(cc2[Si](C)(C)c2cc4c(cc21)C(CS(=O)(=O)O)=CC(C)(C)N4Cc1ccc(S(=O)(=O)O)cc1S(=O)(=O)O)=[N+](Cc1ccc(S(=O)(=O)O)cc1S(=O)(=O)O)C(C)(C)C=C3CS(=O)(=O)O [Compound 62] | 791^b nm | 817^b nm | – | –
4 | Cn1cc[n+](CCCC(=O)O)c1C1=c2cc3c(cc2[Si](C)(C)c2cc4c(cc21)C(CS(=O)(=O)O)CC(C)(C)N4Cc1ccc(S(=O)(=O)O)cc1S(=O)(=O)O)=[N+](Cc1ccc(S(=O)(=O)O)cc1S(=O)(=O)O)C(C)(C)CC3CS(=O)(=O)O (stereo not shown) [Compound 63] | 752^b nm | 776^b nm | – | –
5 | CC[N+]1=c2cc3c(cc2C(CS(=O)(=O)O)=CC1(C)C)=C(c1ccc(C(=O)O)cc1)c1cc2c(cc1C3(C)C)N(Cc1ccc(S(=O)(=O)O)cc1S(=O)(=O)O)C(C)(C)C=C2CS(=O)(=O)O [Compound 64] | 667^b nm | 697^b nm | – | –
6 | CCN1c2cc3c(cc2C(CS(=O)(=O)O)=CC1(C)C)C(c1ccccc1C(=O)N(C)CCCC(=O)O)=c1cc2c(cc1C3(C)C)=[N+](Cc1ccc(S(=O)(=O)O)cc1S(=O)(=O)O)C(C)(C)C=C2CS(=O)(=O)O [Compound 65] | 679^b nm | 706^b nm | – | –
7 | CCN1c2cc3c(cc2C(CS(=O)(=O)O)CC1(C)C)C(c1ccccc1C(=O)N(C)CCCC(=O)O)=c1cc2c(cc1C3(C)C)=[N+](Cc1ccc(S(=O)(=O)O)cc1S(=O)(=O)O)C(C)(C)CC2CS(=O)(=O)O (stereo not shown) [Compound 66] | 645^b nm | 665^b nm | – | –
8 | CN(CCCC(=O)O)C(=O)c1ccccc1C1=c2cc3c(cc2C(C)(C)c2cc4c(cc21)C(CS(=O)(=O)O)=CC(C)(C)N4Cc1ccc(S(=O)(=O)O)cc1S(=O)(=O)O)=[N+](Cc1ccc(S(=O)(=O)O)cc1S(=O)(=O)O)C(C)(C)C=C3CS(=O)(=O)O [Compound 67] | 679^b nm | 707^b nm | – | –
9 | CN(CCCC(=O)O)C(=O)c1ccccc1C1=c2cc3c(cc2C(C)(C)c2cc4c(cc21)C(CS(=O)(=O)O)CC(C)(C)N4Cc1ccc(S(=O)(=O)O)cc1S(=O)(=O)O)=[N+](Cc1ccc(S(=O)(=O)O)cc1S(=O)(=O)O)C(C)(C)CC3CS(=O)(=O)O (stereo not shown) [Compound 68] | 645^b nm | 666^b nm | – | –
10 | CN(CCCC(=O)O)C(=O)c1ccccc1C1=C2C=C/C(=[N+](\C)Cc3ccc(S(=O)(=O)O)cc3S(=O)(=O)O)C=C2[Si](C)(C)c2cc(N(C)Cc3ccc(S(=O)(=O)O)cc3S(=O)(=O)O)ccc21 [Compound 69] | 658^b nm | 680^b nm | – | –
11 | CN(Cc1ccc(S(=O)(=O)O)cc1S(=O)(=O)O)c1ccc2c(c1)[Si](C)(C)C1=C/C(=[N+](/C)Cc3ccc(S(=O)(=O)O)cc3S(=O)(=O)O)C=CC1=C2c1cc(C(=O)O)ccc1C(=O)O [Compound 70] | 649^b nm | 670^b nm | – | –
12 | CN(CCCC(=O)O)C(=O)c1ccccc1C1=c2cc3c(cc2[Si](C)(C)c2cc4c(cc21)C(CS(=O)(=O)O)=CC(C)(C)N4Cc1ccc(S(=O)(=O)O)cc1S(=O)(=O)O)=[N+](Cc1ccc(S(=O)(=O)O)cc1S(=O)(=O)O)C(C)(C)C=C3CS(=O)(=O)O [Compound 71] | 722^b nm | 752^b nm | – | –
13 | CC1(C)C=C(CS(=O)(=O)O)c2cc3c(cc2N1Cc1ccc(S(=O)(=O)O)cc1S(=O)(=O)O)[Si](C)(C)c1cc2c(cc1=C3c1cc(C(=O)O)ccc1C(=O)O)C(CS(=O)(=O)O)=CC(C)(C)[N+]=2Cc1ccc(S(=O)(=O)O)cc1S(=O)(=O)O [Compound 72] | 711^b nm | 740^b nm | – | –
14 | CN(CCCC(=O)O)C(=O)c1ccccc1C1=c2cc3c(cc2[Si](C)(C)c2cc4c(cc21)C(CS(=O)(=O)O)CC(C)(C)N4Cc1ccc(S(=O)(=O)O)cc1S(=O)(=O)O)=[N+](Cc1ccc(S(=O)(=O)O)cc1S(=O)(=O)O)C(C)(C)CC3CS(=O)(=O)O (stereo not shown) [Compound 73] | 686^b nm | 708^b nm | – | –
15 | CC1(C)CC(CS(=O)(=O)O)c2cc3c(cc2N1Cc1ccc(S(=O)(=O)O)cc1S(=O)(=O)O)[Si](C)(C)c1cc2c(cc1=C3c1cc(C(=O)O)ccc1C(=O)O)C(CS(=O)(=O)O)CC(C)(C)[N+]=2Cc1ccc(S(=O)(=O)O)cc1S(=O)(=O)O (stereo not shown) [Compound 74] | 675^b nm | 698^b nm | – | –
16 | CN(C)c1ccc2c(c1)C(C)(C)c1cc3c(cc1=C2)CCC[N+]=3CS(=O)(=O)O [Compound 75] | – | – | 597^a nm | 621^a nm
17 | CN(C)c1ccc2c(c1)C(C)(C)c1cc3c(cc1=C2)CCC[N+]=3Cc1ccc(S(=O)(=O)O)cc1S(=O)(=O)O [Compound 76] | 596^b nm | 622^b nm | – | –
18 | CN(C)c1ccc2c(c1)C(C)(C)c1cc3c(cc1=C2C#N)CCC[N+]=3Cc1ccc(S(=O)(=O)O)cc1S(=O)(=O)O [Compound 77] | 730^b nm | 751^b nm | – | –

Row | SMILES | λabs ([1]; solvent PBS pH 7.4) | λfl ([2]; solvent PBS pH 7.4) | λabs ([1]; solvent ethanol) | λfl ([2]; solvent ethanol)
19 | CN(C)c1ccc2c(c1)C(C)(C)c1cc3c(cc1=C2NCCCCCC(=O)O)CCC[N+]=3Cc1ccc(S(=O)(=O)O)cc1S(=O)(=O)O [Compound 78] | 463 nm | 609^b nm | 468 nm | –
20 | CC1(C)c2c(cc3c4c2CCCN4CCC3)C=c2cc3c(cc21)=[N+](Cc1ccc(S(=O)(=O)O)cc1S(=O)(=O)O)CCC3 [Compound 79] | 627^b nm | 649^b nm | – | –
21 | CC1(C)c2c(cc3c4c2CCCN4CCC3)C(C#N)=c2cc3c(cc21)=[N+](Cc1ccc(S(=O)(=O)O)cc1S(=O)(=O)O)CCC3 [Compound 80] | 739^b nm | 761^b nm | – | –
22 | CC1(C)c2cc3c(cc2C(NCC(S(=O)(=O)O)S(=O)(=O)O)=c2cc4c(cc21)=[N+](Cc1ccc(S(=O)(=O)O)cc1S(=O)(=O)O)C(C)(C)C=C4CS(=O)(=O)O)CCCN3CCCC(=O)O [Compound 84] | 490^b nm | 644^b nm | – | –
23 | C[N+](C)=C1C=CC2=C(NC(CCS(=O)(=O)O)C(=O)O)c3cc4c(cc3C(C)(C)C2=C1)N(Cc1ccc(S(=O)(=O)O)cc1S(=O)(=O)O)CCC4 (stereo not shown) [Compound 85] | 496^b nm | 673^b nm | – | –
24 | CC1(C)c2cc3c(cc2C(NCC(S(=O)(=O)O)S(=O)(=O)O)=c2cc4c(cc21)=[N+](Cc1ccc(S(=O)(=O)O)cc1S(=O)(=O)O)C(C)(C)C=C4CS(=O)(=O)O)C(CS(=O)(=O)O)=CC(C)(C)N3CCCC(=O)O [Compound 86] | 502^b nm | 660^b nm | – | –
25 | CCN(CS(=O)(=O)O)c1ccc2c(c1)[Si](C)(C)C1=C/C(=[N+](/CC)CS(=O)(=O)O)C=CC1=C2NCCS(=O)(=O)O [Compound 87] | 472^b nm | 605^b nm | – | –
26 | CCN(CS(=O)(=O)O)c1ccc2c(c1)[Si](C)(C)C1=C/C(=[N+](/CC)CS(=O)(=O)O)C=CC1=C2NCC(S(=O)(=O)O)S(=O)(=O)O [Compound 88] | 471^b nm | 605^b nm | – | –
27 | CN(Cc1ccc(S(=O)(=O)O)cc1S(=O)(=O)O)c1ccc2c(c1)[Si](C)(C)C1=C/C(=[N+](/C)Cc3ccc(S(=O)(=O)O)cc3S(=O)(=O)O)C=CC1=C2C#N [Compound 89] | 746^b nm | 763^b nm | – | –
28 | CN(Cc1ccc(S(=O)(=O)O)cc1S(=O)(=O)O)c1ccc2c(c1)[Si](C)(C)C1=C/C(=[N+](/C)Cc3ccc(S(=O)(=O)O)cc3S(=O)(=O)O)C=CC1=C2NCCCC(=O)O [Compound 90] | 483^b nm | 637^b nm | – | –
29 | CC1(C)C=C(CS(=O)(=O)O)c2cc3c(cc2N1CCCC(=O)O)[Si](C)(C)c1cc2c(cc1=C3)C(CS(=O)(=O)O)=CC(C)(C)[N+]=2CS(=O)(=O)O [Compound 91] | 715^b nm | 738^b nm | – | –
30 | CC1(C)C=C(CS(=O)(=O)O)c2cc3c(cc2N1CCCC(=O)O)[Si](C)(C)c1cc2c(cc1=C3C#N)C(CS(=O)(=O)O)=CC(C)(C)[N+]=2CCS(=O)(=O)O [Compound 92] | 817^b nm | 841^b nm | – | –
31 | CC1(C)C=C(CS(=O)(=O)O)c2cc3c(cc2N1CCCC(=O)O)[Si](C)(C)c1cc2c(cc1=C3NCC(S(=O)(=O)O)S(=O)(=O)O)C(CS(=O)(=O)O)=CC(C)(C)[N+]=2CCS(=O)(=O)O [Compound 93] | 516^b nm | 695^b nm | – | –
32 | C[Si]1(C)c2cc3c(cc2C=c2cc4c(cc21)=[N+](Cc1ccc(S(=O)(=O)O)cc1S(=O)(=O)O)CCC4)CCCN3CCCC(=O)O [Compound 94] | 670^b nm | 693^b nm | – | –
33 | C[Si]1(C)c2cc3c(cc2C(NCCCC(=O)O)=c2cc4c(cc21)=[N+](Cc1ccc(S(=O)(=O)O)cc1S(=O)(=O)O)CCC4)CCCN3Cc1ccc(S(=O)(=O)O)cc1S(=O)(=O)O [Compound 95] | 489^b nm | 661^b nm | – | –
34 | CC1(C)C=C(CS(=O)(=O)O)c2cc3c(cc2N1CCS(=O)(=O)O)[Si](C)(C)c1cc2c(cc1=C3NC(CCS(=O)(=O)O)C(=O)O)C(CS(=O)(=O)O)=CC(C)(C)[N+]=2CCS(=O)(=O)O (stereo not shown) [Compound 96] | 518^b nm | 695^b nm | – | –
35 | CC1(C)CC(CS(=O)(=O)O)c2cc3c(cc2=[N+]1CCCC(=O)O)Oc1cc(N(Cc2ccc(S(=O)(=O)O)cc2S(=O)(=O)O)Cc2ccc(S(=O)(=O)O)cc2S(=O)(=O)O)ccc1N=3 (stereo not shown) [Compound 97] | 649^b nm | 667^b nm | – | –
36 | CC1(C)CC(CS(=O)(=O)O)c2cc3c(cc2=[N+]1CCCC(=O)O)Oc1cc2c(cc1N=3)CCCN2Cc1ccc(S(=O)(=O)O)cc1S(=O)(=O)O (stereo not shown) [Compound 98] | 664^b nm | 682^b nm | – | –
